The NIST ThermoML archive (doi:10.1021/acs.jced.6b00362)

Test: refractive index (other wavelength) (dimensionless); xn = mol fraction of the nth substance listed
Details: 100 kPa, Liquid, ellipsometry

[Cl][Ce]([Cl])[Cl] [cerium trichloride] + [Cl-].[Cs+]
refractive index, Wavelength=632.8 nm
Details	x1 = 0.25	x1 = 0.5	x1 = 0.75	x1 = 1
1073 K	1.495	1.553	1.627	–
1103 K	1.49	1.549	1.623	1.697
1123 K	1.487	1.545	1.619	–
1133 K	–	–	–	1.691
1153 K	1.482	1.54	1.614	1.688
1173 K	1.479	1.537	1.61	1.685
1193 K	–	–	–	1.681
1203 K	–	1.532	–	–
1213 K	–	1.53	–	1.678
1223 K	–	–	1.601	–
1233 K	–	–	–	1.674

[Cl-].[K+] [potassium chloride] + [Cl][Sm]([Cl])[Cl]
Wavelength=632.8 nm, x2 = 0
Details	refractive index
1073 K	1.393
1093 K	1.39
1103 K	1.388
1113 K	1.386
1123 K	1.385
1133 K	1.383
1153 K	1.38
1173 K	1.377
1193 K	1.374

[Cl-].[Cs+] [cesium chloride] + [Cl-].[Cl-].[Cl-].[Gd+3]
Wavelength=632.8 nm, x2 = 0
Details	refractive index
1023 K	1.439
1033 K	1.438
1053 K	1.434
1073 K	1.43
1093 K	1.426
1113 K	1.423
1133 K	1.419
1153 K	1.415
1173 K	1.411

[Cl-].[Cl-].[Cl-].[Gd+3] [gadolinium(III) chloride] + [Cl-].[Na+]
refractive index, Wavelength=632.8 nm
Details	923 K	973 K	1023 K	1073 K	1123 K	1173 K
x1 = 0.25	1.525	1.518	1.512	1.505	1.496	1.488
x1 = 0.5	1.586	1.58	1.57	1.562	1.55	1.544
x1 = 0.75	1.643	1.64	1.638	1.627	1.62	1.616
x1 = 1	1.7	1.685	1.68	1.675	1.664	1.662

[Cl][Sm]([Cl])[Cl] [samarium chloride] + [Cl-].[Cs+]
refractive index, Wavelength=6328 nm
Details	973 K	1003 K	1023 K	1073 K	1103 K	1123 K	1153 K	1173 K	1203 K
x1 = 0.15	–	–	1.468	1.464	1.458	1.448	–	1.44	–
x1 = 0.5	1.564	1.558	1.557	1.55	1.543	1.54	–	1.527	1.523
x1 = 0.75	1.675	1.668	1.662	1.654	1.651	1.642	–	1.64	1.635
x1 = 1	1.712	1.705	1.701	1.691	1.684	1.68	1.674	1.672	–

[Cl-].[Cs+] [cesium chloride] + [Cl][Ce]([Cl])[Cl]
Wavelength=632.8 nm, x2 = 0
Details	refractive index
1023 K	1.439
1033 K	1.438
1053 K	1.434
1073 K	1.43
1093 K	1.426
1113 K	1.423
1133 K	1.419
1153 K	1.415
1173 K	1.411

[Cl-].[Cl-].[Cl-].[Gd+3] [gadolinium(III) chloride] + [Cl-].[Cs+]
refractive index, Wavelength=632.8 nm
Details	923 K	973 K	1023 K	1073 K	1103 K	1123 K	1173 K
x1 = 0.15	–	–	–	1.46	1.453	1.448	1.437
x1 = 0.5	1.568	1.56	1.552	1.543	1.538	1.535	1.526
x1 = 0.75	1.629	1.621	1.613	1.606	1.603	1.601	1.594
x1 = 1	1.7	1.685	1.68	1.675	–	1.664	1.662

[Cl-].[Cs+] [cesium chloride] + [Cl][Sm]([Cl])[Cl]
Wavelength=6328 nm, x2 = 0
Details	refractive index
1023 K	1.439
1033 K	1.438
1053 K	1.434
1073 K	1.43
1093 K	1.426
1113 K	1.423
1133 K	1.419
1153 K	1.415
1173 K	1.411

[Cl][Sm]([Cl])[Cl] [samarium chloride] + [Cl-].[K+]
refractive index, Wavelength=632.8 nm
Details	973 K	1003 K	1023 K	1073 K	1103 K	1123 K	1153 K	1173 K	1203 K
x1 = 0.25	–	–	–	1.478	1.47	1.466	–	1.458	1.45
x1 = 0.5	1.588	1.582	1.577	1.56	1.551	1.54	–	1.525	1.52
x1 = 0.75	1.66	1.652	1.651	1.63	1.623	1.618	–	1.605	1.601
x1 = 1	1.712	1.705	1.701	1.691	1.684	1.68	1.674	1.672	–
